From ChEMBL document CHEMBL5352429, “Designed symmetrical β-hairpin peptides for treating multidrug-resistant salmonella typhimurium infections” (Eur J Med Chem, 2022)
Values after ≈ are worked out from the molar mass of the structure shown. Active and inactive are the calls of the source. The rule behind the calls is not given here. Peptide text beside a SMILES is read from it.

Columns and labels:
Staphylococcus aureus = assay: Antibacterial activity against Staphylococcus aureus ATCC 29213 incubated overnight by standard microtiter dilution method; type: functional
[1] = tested on: Staphylococcus epidermidis; assay: Antibacterial activity against methicillin-resistant Staphylococcus epidermidis ATCC 12228 incubated overnight by standard microtiter dilution method; type: functional
[2] = Antibacterial activity against Salmonella paratyphi C CICC 21512 incubated overnight by standard microtiter dilution method; type: functional, Salmonella enterica subsp. enterica serovar Paratyphi C; settings: Salmonella enterica
[3] = Antibacterial activity against Salmonella enterica subsp. enterica serovar Choleraesuis CICC 21493 incubated overnight by standard microtiter dilution method; type: functional
Salmonella enteritidis = assay: Antibacterial activity against Salmonella enteritidis CICC 21527 incubated overnight by standard microtiter dilution method; type: functional, Salmonella enterica subsp. enterica serovar Enteritidis; settings: Salmonella enterica
[4] = Antibacterial activity against Salmonella wandsworth CICC 21504 incubated overnight by standard microtiter dilution method; type: functional, Salmonella enterica subsp. enterica serovar Wandsworth; settings: Salmonella enterica
Salmonella typhimurium [5] = assay: Antibacterial activity against Salmonella typhimurium CICC 21483 incubated overnight by standard microtiter dilution method; type: functional, Salmonella enterica subsp. enterica serovar Typhimurium; settings: Salmonella enterica
[6] = Antibacterial activity against Salmonella blockley CICC 21489 incubated overnight by standard microtiter dilution method; type: functional, Salmonella enterica subsp. enterica serovar Blockley; settings: Salmonella enterica
[7] = Antibacterial activity against Salmonella dublin CICC 21497 incubated overnight by standard microtiter dilution method; type: functional, Salmonella enterica subsp. enterica serovar Dublin; settings: Salmonella enterica
Salmonella typhimurium [8] = assay: Antibacterial activity against Salmonella typhimurium DT104 ATCC 700408 incubated overnight by standard microtiter dilution method; type: functional, Salmonella enterica subsp. enterica serovar Typhimurium; settings: Salmonella enterica
Candida albicans = assay: Antifungal activity against Candida albicans ATCC 10231 incubated overnight by standard microtiter dilution method; type: functional
Salmonella typhimurium [9] = assay: Antibacterial activity against Salmonella typhimurium DT104 in the presence of NaCl by MH broth based assay; type: functional, Salmonella enterica subsp. enterica serovar Typhimurium; settings: Salmonella enterica
Salmonella typhimurium [10] = assay: Antibacterial activity against Salmonella typhimurium DT104 in the presence of KCl by MH broth based assay; type: functional, Salmonella enterica subsp. enterica serovar Typhimurium; settings: Salmonella enterica
Salmonella typhimurium [11] = assay: Antibacterial activity against Salmonella typhimurium DT104 in the presence of CaCl2 by MH broth based assay; type: functional, Salmonella enterica subsp. enterica serovar Typhimurium; settings: Salmonella enterica
Salmonella typhimurium [12] = assay: Antibacterial activity against Salmonella typhimurium DT104 in the presence of MgCl2 by MH broth based assay; type: functional, Salmonella enterica subsp. enterica serovar Typhimurium; settings: Salmonella enterica
Salmonella typhimurium [13] = assay: Antibacterial activity against Salmonella typhimurium DT104 in the presence of FeCl3 by MH broth based assay; type: functional, Salmonella enterica subsp. enterica serovar Typhimurium; settings: Salmonella enterica
Salmonella typhimurium [14] = assay: Antibacterial activity against Salmonella typhimurium DT104 in the presence 25% inactivated mouse serum by MH broth based assay; type: functional, Salmonella enterica subsp. enterica serovar Typhimurium; settings: Salmonella enterica
Salmonella typhimurium [15] = assay: Antibacterial activity against Salmonella typhimurium DT104 in the presence 50% inactivated mouse serum by MH broth based assay; type: functional, Salmonella enterica subsp. enterica serovar Typhimurium; settings: Salmonella enterica
[16] = Hemolytic activity in human Red blood cells assessed as hemolysis at 128 ug/ml incubated for 1 hrs by absorbance based microplate reader analysis relative to control; type: toxicity, cell-based, Erythrocyte; settings: red blood cells (erythrocytes), at 128 µg/mL, read-out: Activity
Salmonella typhimurium [17] = assay: Antibacterial activity against Salmonella typhimurium DT104 infected in mouse RAW264.7 cells assessed as log reduction in bacterial colony count at 1 times of MIC measured after 90 mins by MH agar based serial dilution method; type: functional, Salmonella enterica subsp. enterica serovar Typhimurium; settings: 1.5 h
Salmonella typhimurium [18] = assay: Antibacterial activity against Salmonella typhimurium DT104 infected in mouse RAW264.7 cells assessed as bacterial killing at 1 times of MIC measured after 90 mins by MH agar based serial dilution method relative to control; type: functional, Salmonella enterica subsp. enterica serovar Typhimurium; settings: 1.5 h
Salmonella typhimurium [19] = assay: Antibacterial activity against Salmonella typhimurium DT104 infected in mouse RAW264.7 cells assessed as reduction in bacterial cells at 1 times of MIC measured for 180 mins by MH agar based serial dilution method; type: functional, organism-based; settings: Salmonella enterica subsp. enterica serovar Typhimurium
Lipopolysaccharide (LPS) = assay: Displacement of BODIPY-TR-cadaverine from Salmonella typhimurium LPS assessed as increase in fluorescence intensity by fluorescence spectrophotometric analysis; settings: Salmonella enterica subsp. enterica serovar Typhimurium; dose 0.25-8 µg/ml
RAW264.7 [20] = assay: Anti-inflammatory activity in mouse RAW264.7 cells assessed as inhibition of LPS-induced IL-8 mRNA expression at 15 ug/ml preincubated with compound for 30 mins followed by LPS stimulation and measured after 4 hrs by RT-PCR analysis; type: functional, cell-based; settings: dose 15.0 µg/ml, time 4.5 hrs
RAW264.7 [21] = assay: Anti-inflammatory activity in mouse RAW264.7 cells assessed as inhibition of LPS-induced IL-10 mRNA expression at 15 ug/ml preincubated with compound for 30 mins followed by LPS stimulation and measured after 4 hrs by RT-PCR analysis; type: functional, cell-based; settings: dose 15.0 µg/ml, time 4.5 hrs
RAW264.7 [22] = assay: Anti-inflammatory activity in mouse RAW264.7 cells assessed as inhibition of LPS-induced IL-4 mRNA expression at 15 ug/ml preincubated with compound for 30 mins followed by LPS stimulation and measured after 4 hrs by RT-PCR analysis; type: functional, cell-based; settings: dose 15.0 µg/ml, time 4.5 hrs
RAW264.7 [23] = assay: Inhibition of LPS-stimulated NO production in mouse RAW264.7 cells incubated for 24 hrs by Griess reagent based analysis; type: functional, cell-based; settings: dose 1-128 µg/ml
RAW264.7 [24] = assay: Inhibition of LPS-stimulated IL-8 production in mouse RAW264.7 cells at 1 to 128 ug/ml incubated for 24 hrs by ELISA analysis; type: functional, cell-based; settings: dose 1-128 µg/ml
Salmonella typhimurium [25] = assay: Antibacterial activity against Salmonella typhimurium DT104 infected in ICR mouse model at 2 mg/kg, ip administered for 3 days and measured on day 7; type: functional, organism-based; settings: Salmonella enterica subsp. enterica serovar Typhimurium, time 7.0 day
Salmonella typhimurium [26] = assay: Antibacterial activity against Salmonella typhimurium DT104 infected in ICR mouse model assessed as body weight gain at 2 mg/kg, ip administered for 3 days and measured from day 4 to day 7; type: functional, organism-based; settings: Salmonella enterica subsp. enterica serovar Typhimurium, time 7.0 day
Salmonella typhimurium [27] = assay: Antibacterial activity against Salmonella typhimurium DT104 assessed as reduction in IL-8 mRNA level in ileum at 20 mg/kg, ip administered for 3 days and measured on day 7 by RT-PCR analysis; type: functional, organism-based; settings: Salmonella enterica subsp. enterica serovar Typhimurium, time 7.0 day
Salmonella typhimurium [28] = assay: Antibacterial activity against Salmonella typhimurium DT104 assessed as reduction in IL-4 mRNA level in ileum at 20 mg/kg, ip administered for 3 days and measured on day 7 by RT-PCR analysis; type: functional, organism-based; settings: Salmonella enterica subsp. enterica serovar Typhimurium, time 7.0 day
Salmonella typhimurium [29] = assay: Antibacterial activity against Salmonella typhimurium DT104 assessed as increase in occludin mRNA level in colon at 20 mg/kg, ip administered for 3 days and measured on day 7 by RT-PCR analysis; type: functional, organism-based; settings: Salmonella enterica subsp. enterica serovar Typhimurium, time 7.0 day
Lipid bilayer = assay: Induction of outer membrane permeabilization in Salmonella typhimurium DT104 at 0.625 to 15 microg/ml by NPN uptake based fluorescence spectrophotometric analysis; settings: Salmonella enterica subsp. enterica serovar Typhimurium, dose 0.625-15 µg/ml
Cell membrane [30] = assay: Induction of membrane damage in Salmonella typhimurium DT104 assessed as membrane creping at 1 times of MIC incubated for 60 mins by atomic force microscopic analysis; type: subcellular; settings: Salmonella enterica subsp. enterica serovar Typhimurium
Cell membrane [31] = assay: Induction of membrane damage in Salmonella typhimurium DT104 assessed as membrane devastation at 1 times of MIC incubated for 60 mins by atomic force microscopic analysis; type: subcellular; settings: Salmonella enterica subsp. enterica serovar Typhimurium
Cell membrane [32] = assay: Induction of membrane damage in Salmonella typhimurium DT104 assessed as cytoplasmic outflow at 1 times of MIC incubated for 60 mins by transmission electron microscopic analysis; type: subcellular; settings: Salmonella enterica subsp. enterica serovar Typhimurium
Cell membrane [33] = assay: Induction of membrane damage in Salmonella typhimurium DT104 assessed as cytoplasmic outflow at 1 times of MIC incubated for 15 mins by confocal laser scanning microscopic analysis; type: subcellular; settings: Salmonella enterica subsp. enterica serovar Typhimurium

Compound C[C@@H](O)[C@H](NC(=O)[C@H](CS)NC(=O)[C@H](CCCCN)NC(=O)[C@H](Cc1c[nH]c2ccccc12)NC(=O)[C@H](CCCCN)NC(=O)[C@@H](N)Cc1c[nH]c2ccccc12)C(=O)N[C@@H](CCCCN)C(=O)N[C@@H](CO)C(=O)NCC(=O)N[C@@H](CS)C(=O)N[C@@H](CCCCN)C(=O)N[C@@H](Cc1c[nH]c2ccccc12)C(=O)N[C@@H](CCCCN)C(=O)N[C@@H](Cc1c[nH]c2ccccc12)C(N)=O (H-WKWKCTKSGCKWKW-NH2) has an MIC (Staphylococcus aureus) of 4 µg/mL (≈ 2.16 µM), an MIC [1] of 4 µg/mL (≈ 2.16 µM) and an MIC [2] of 4 µg/mL (≈ 2.16 µM). The MIC [3] was 8 µg/mL (≈ 4.31 µM), the MIC (Salmonella enteritidis) was 8 µg/mL (≈ 4.31 µM) and the MIC [4] was 8 µg/mL (≈ 4.31 µM). It also gave an MIC (Salmonella typhimurium [5]) of 4 µg/mL (≈ 2.16 µM), an MIC [6] of 8 µg/mL (≈ 4.31 µM) and an MIC [7] of 8 µg/mL (≈ 4.31 µM). It also gave an MIC (Salmonella typhimurium [8]) of 4 µg/mL (≈ 2.16 µM), an MIC (Candida albicans) of 2 µg/mL (≈ 1.08 µM) and an MIC (Salmonella typhimurium [9]) of 4 µg/mL. It also gave an MIC (Salmonella typhimurium [10]) of 8 µg/mL, an MIC (Salmonella typhimurium [11]) of 8 µg/mL and an MIC (Salmonella typhimurium [12]) of 4 µg/mL. For the same compound, the MIC (Salmonella typhimurium [13]) was 8 µg/mL, the MIC (Salmonella typhimurium [14]) was 16 µg/mL (≈ 8.63 µM) and the MIC (Salmonella typhimurium [15]) was 32 µg/mL (≈ 17.3 µM). The hemolysis at 1 h, 128 ug/ml [16] was under 10%, the “log(activity)” value (Salmonella typhimurium [17]) was 3 and the Activity (Salmonella typhimurium [18]) was over 99.9%. For the same compound, the Activity (Salmonella typhimurium [19]) was “Active”, the Activity (Lipopolysaccharide (LPS)) was “Dose-Dependent Effect” and the inhibition (RAW264.7 [20]) was “Active”. For the same compound, the inhibition (RAW264.7 [21]) was “Active”, the inhibition (RAW264.7 [22]) was “Active” and the inhibition (RAW264.7 [23]) was “Dose-Dependent Effect”. For the same compound, the inhibition (RAW264.7 [24]) was “Active”, the Activity (Salmonella typhimurium [25]) was “Active” and the Activity (Salmonella typhimurium [26]) was “Active”. The Activity (Salmonella typhimurium [27]) was “Active”, the Activity (Salmonella typhimurium [28]) was “Active” and the Activity (Salmonella typhimurium [29]) was “Active”. For the same compound, the Activity (Lipid bilayer) was “Active”, the Activity (Cell membrane [30]) was “Active” and the Activity (Cell membrane [31]) was “Active”. The Activity (Cell membrane [32]) was “Active” and the Activity (Cell membrane [33]) was “Active”.
